Assay results: patent publication US10745382B2 (BRISTOL-MYERS SQUIBB COMPANY, priority 2015, dated 2020)

biological target: T1, PD-1/PD-L1 (Homo sapiens, UniProt Q9NZQ7); assay: PD-1/PD-L1 Homogenous Time-Resolved Fluorescence (HTRF) binding assay; settings: PD-L1-His 10 nM, PD-1-Ig 20 nM; numeric IC50; read-out: Range or IC50
T1 construct: made in house; host or cells: HEK293T
Outline: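 Detection by europium cryptate anti-Ig plus APC anti-His (1 nM and 20 nM final) with HTRF signal. Buffer was dPBS, 0.1% BSA, 0.05% Tween-20.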

T1 sequence (Q9NZQ7 with tags, fused parts or gaps): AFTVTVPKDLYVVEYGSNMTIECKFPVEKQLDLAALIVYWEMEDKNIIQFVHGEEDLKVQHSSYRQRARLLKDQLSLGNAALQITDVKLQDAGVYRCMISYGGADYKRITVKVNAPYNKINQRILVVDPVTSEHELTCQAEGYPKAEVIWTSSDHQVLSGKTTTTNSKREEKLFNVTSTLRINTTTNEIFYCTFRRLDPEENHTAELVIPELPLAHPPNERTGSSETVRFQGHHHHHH

Row | IC50 [nM] | Structure (SMILES)
1 | 9 | Cc1c(COc2cc(OCc3cncc(C#N)c3)c(CN[C@@](C)(CO)C(=O)O)cc2Cl)cccc1-c1cccc(OCCCN2CCC(O)C2)c1C(F)(F)F (stereo in doubt) [Example 3011, (S)-2-((5-chloro-2-((5-cyanopyridin-3-yl)methoxy)-4-((3′-(3-((R)-3-hydroxypyrrolidin-1-yl)propoxy)-2-methyl-2′-(trifluoromethyl)-[1,1′-biphenyl]-3-yl)methoxy)benzyl)amino)-3-hydroxy-2-methylpropanoic Acid]

same assay, conditions: PD-L1-His 10 nM, PD-1-Ig 20 nM; value given as range class; read-out: Range or IC50

Row | Structure (SMILES) | IC50 [nM]
2 | Cc1c(COc2cc(OCc3cncc(C#N)c3)c(CN[C@](C)(CO)C(=O)O)cc2Cl)cccc1-c1cccc(OCCCN2CCCCC2)c1Cl [Example 2016, (R)-2-((5-chloro-4-((2′-chloro-2-methyl-3′-(3-(piperidin-1-yl)propoxy)-[1,1′-biphenyl]-3-yl)methoxy)-2-((5-cyanopyridin-3-yl)methoxy)benzyl)amino)-3-hydroxy-2-methylpropanoic Acid] | 0.21 to 10
3 | Cc1c(COc2cc(OCc3cncc(C#N)c3)c(CN[C@@](C)(CO)C(=O)O)cc2Cl)cccc1-c1cccc(OCCC(=O)N2CC[C@@H](O)C2)c1 [Example 1010, (S)-2-((5-chloro-2-((5-cyanopyridin-3-yl)methoxy)-4-((3′-(3-((R)-3-hydroxypyrrolidin-1-yl)-3-oxopropoxy)-2-methyl-[1,1′-biphenyl]-3-yl)methoxy)benzyl)amino)-3-hydroxy-2-methylpropanoic Acid] | 0.21 to 10
4 | Cc1c(CCCCN2CC[C@@H](O)C2)cccc1-c1cccc(COc2cc(OCc3cncc(C#N)c3)c(CN3CCN(C(=O)OC(C)(C)C)C[C@H]3C(=O)O)cc2Cl)c1C [Example 4068, (S)-4-(tert-butoxycarbonyl)-1-(5-chloro-2-((5-cyanopyridin-3-yl)methoxy)-4-((3′-(4-((R)-3-hydroxypyrrolidin-1-yl)butyl)-2,2′-dimethyl-[1,1′-biphenyl]-3-yl)methoxy)benzyl)piperazine-2-carboxylic Acid] | 0.21 to 10
5 | Cc1c(COc2cc(OCc3cncc(C(N)=O)c3)c(CN[C@](C)(CO)C(=O)O)cc2Cl)cccc1-c1cccc(OCCCN2CCC(CO)(C(=O)O)CC2)c1C [Example 1113, (R)-1-(3-((3′-((5-((5-carbamoylpyridin-3-yl)methoxy)-4-(((2-carboxy-1-hydroxypropan-2-yl)amino)methyl)-2-chlorophenoxy)methyl)-2,2′-dimethyl-[1,1′-biphenyl]-3-yl)oxy)propyl)-4-(hydroxymethyl)piperidine-4-carboxylic Acid] | 0.21 to 10
6 | Cc1c(COc2cc(OCc3cncc(C#N)c3)c(CN3CCCC[C@H]3C(=O)O)cc2Cl)cccc1-c1ccc2c(c1)OC(CCN1CC[C@@H](O)C1)CO2 (single isomer, unassigned) [Example 1506] | 0.21 to 10
7 | Cc1c(COc2cc(OCc3cncc(C#N)c3)c(CN[C@](C)(CO)C(=O)O)cc2Cl)cccc1-c1cccc(OCCCN2CCC(CO)(C(=O)O)CC2)c1C [Example 1112, (R)-1-(3-((3′-((4-(((2-carboxy-1-hydroxypropan-2-yl)amino)methyl)-2-chloro-5-((5-cyanopyridin-3-yl)methoxy)phenoxy)methyl)-2,2′-dimethyl-[1,1′-biphenyl]-3-yl)oxy)propyl)-4-(hydroxymethyl)piperidine-4-carboxylic Acid] | 0.21 to 10
8 | Cc1c(COc2cc(OCc3cncc(C(N)=O)c3)c(CN3CCCC[C@H]3C(=O)O)cc2Cl)cccc1-c1cccc(OCCCN2CCC(CO)(C(=O)O)CC2)c1Cl [Example 1114, (S)-1-(2-((5-carbamoylpyridin-3-yl)methoxy)-4-((3′-(3-(4-carboxy-4-(hydroxymethyl)piperidin-1-yl)propoxy)-2′-chloro-2-methyl-[1,1′-biphenyl]-3-yl)methoxy)-5-chlorobenzyl)piperidine-2-carboxylic Acid] | 0.21 to 10
9 | Cc1c(COc2cc(OCc3cncc(C#N)c3)c(CNC[C@@H](O)CC(=O)O)cc2Cl)cccc1-c1cccc(OCCCN2CC[C@@H](O)C2)c1 [Example 1014, (S)-4-((5-chloro-2-((5-cyanopyridin-3-yl)methoxy)-4-((3′-(3-((R)-3-hydroxypyrrolidin-1-yl)propoxy)-2-methyl-[1,1′-biphenyl]-3-yl)methoxy)benzyl)amino)-3-hydroxybutanoic Acid] | 0.21 to 10

Next, values leading:

Row | IC50 [nM] | Structure (SMILES)
10 | 0.21 to 10 | Cc1c(COc2cc(OCc3cncc(C#N)c3)c(CN[C@@](C)(CO)C(=O)O)cc2Cl)cccc1-c1cccc(OCCCN2CC(=O)NC(=O)C2)c1C [Example 2327, (S)-2-((5-chloro-2-((5-cyanopyridin-3-yl)methoxy)-4-((3′-(3-(3,5-dioxopiperazin-1-yl)propoxy)-2,2′-dimethyl-[1,1′-biphenyl]-3-yl)methoxy)benzyl)amino)-3-hydroxy-2-methylpropanoic Acid]
11 | 0.21 to 10 | CCN(Cc1cc(Cl)c(OCc2cccc(-c3cccc(OCCCN4CC[C@@H](O)C4)c3Cl)c2C)cc1OCc1cncc(C#N)c1)[C@](C)(CO)C(=O)O [Example 2072, (R)-2-((5-chloro-4-((2′-chloro-3′-(3-((R)-3-hydroxypyrrolidin-1-yl)propoxy)-2-methyl-[1,1′-biphenyl]-3-yl)methoxy)-2-((5-cyanopyridin-3-yl)methoxy)benzyl)(ethyl)amino)-3-hydroxy-2-methylpropanoic Acid]
12 | 0.21 to 10 | CC(CO)(CO)NCc1cc(Cl)c(OCc2cccc(-c3cccc(OCCCN4CC[C@@H](O)C4)c3Cl)c2Cl)cc1OCCC(F)(F)F [Example 2107, (R)-2-((5-chloro-4-((2,2′-dichloro-3′-(3-(3-hydroxypyrrolidin-1-yl)propoxy)-[1,1′-biphenyl]-3-yl)methoxy)-2-(3,3,3-trifluoropropoxy)benzyl)amino)-2-methylpropane-1,3-diol]
13 | 0.21 to 10 | Cc1c(COc2cc(OCc3cncc(C#N)c3)c(CNC(C)(CO)CO)cc2Cl)cccc1-c1cccc(OCCCNC(C)(CO)CO)c1Cl [Example 2102, 5-((4-chloro-5-((2′-chloro-3′-(3-((1,3-dihydroxy-2-methylpropan-2-yl)amino)propoxy)-2-methyl-[1,1′-biphenyl]-3-yl)methoxy)-2-(((1,3-dihydroxy-2-methylpropan-2-yl)amino)methyl)phenoxy)methyl)nicotinonitrile]
14 | 0.21 to 10 | Cc1c(COc2cc(OCc3cncc(C#N)c3)c(CNC[C@H](O)CO)cc2Cl)cccc1-c1cccc(OCCCN(C)C[C@H](O)CO)c1Cl [Example 2029, 5-((4-chloro-5-((2′-chloro-3′-(3-(((S)-2,3-dihydroxypropyl)(methyl)amino)propoxy)-2-methyl-[1,1′-biphenyl]-3-yl)methoxy)-2-((((S)-2,3-dihydroxypropyl)amino)methyl)phenoxy)methyl)nicotinonitrile]
15 | 0.21 to 10 | Cc1c(COc2cc(OCc3cncc(C#N)c3)c(CN[C@](C)(CO)C(=O)O)cc2Cl)cccc1-c1cccc(OCCCNC[C@H](O)CO)c1Cl [Example 2048, (R)-2-((5-chloro-4-((2′-chloro-3′-(3-(((S)-2,3-dihydroxypropyl)amino)propoxy)-2-methyl-[1,1′-biphenyl]-3-yl)methoxy)-2-((5-cyanopyridin-3-yl)methoxy)benzyl)amino)-3-hydroxy-2-methylpropanoic Acid]
16 | 0.21 to 10 | CC(CO)(CO)NCc1cc(Cl)c(OCc2cccc(-c3cccc(OCCCN4CC[C@@H](O)C4)c3Cl)c2Cl)cc1OCc1cc(C#N)ccc1F [Example 2055, (R)-3-((4-chloro-5-((2,2′-dichloro-3′-(3-(3-hydroxypyrrolidin-1-yl)propoxy)-[1,1′-biphenyl]-3-yl)methoxy)-2-(((1,3-dihydroxy-2-methylpropan-2-yl)amino)methyl)phenoxy)methyl)-4-fluorobenzonitrile]
17 | 0.21 to 10 | CNC(=O)c1cccc(-c2cccc(COc3cc(OCc4cncc(C#N)c4)c(CNC(CO)CO)cc3Cl)c2C)c1C [Example 4015, 3′-((2-chloro-5-((5-cyanopyridin-3-yl)methoxy)-4-(((1,3-dihydroxypropan-2-yl)amino)methyl)phenoxy)methyl)-N,2,2′-trimethyl-[1,1′-biphenyl]-3-carboxamide]
18 | 10 to 100 | CNC(=O)c1cccc(-c2cccc(COc3cc(OCc4cncc(C#N)c4)c(CN4CCCC[C@H]4C(=O)O)cc3Cl)c2C)c1C [Example 4011, (S)-1-(5-chloro-2-((5-cyanopyridin-3-yl)methoxy)-4-((2,2′-dimethyl-3′-(methylcarbamoyl)-[1,1′-biphenyl]-3-yl)methoxy)benzyl)piperidine-2-carboxylic Acid]
19 | 0.21 to 10 | Cc1c(COc2cc(OCc3cncc(C#N)c3)c(CNC(C)(CO)CO)cc2Cl)cccc1-c1cccc(OCCc2ccccn2)c1Cl [Example 2081, 5-((4-chloro-5-((2′-chloro-2-methyl-3′-(2-(pyridin-2-yl)ethoxy)-[1,1′-biphenyl]-3-yl)methoxy)-2-(((1,3-dihydroxy-2-methylpropan-2-yl)amino)methyl)phenoxy)methyl)nicotinonitrile]
20 | 0.21 to 10 | Cc1c(COc2cc(OCc3cncc(C#N)c3)c(CN3CCCC[C@H]3C(=O)O)cc2Cl)cccc1-c1cccc(OCCCN2CCC(CO)CC2)c1C [Example 2214, (2S)-1-(5-chloro-2-((5-cyanopyridin-3-yl)methoxy)-4-((3′-(3-(4-(hydroxymethyl)piperidin-1-yl)propoxy)-2,2′-dimethylbiphenyl-3-yl)methoxy)benzyl)piperidine-2-carboxylic Acid]
21 | 0.21 to 10 | CC(=O)NC1CCN(CCCOc2cccc(-c3cccc(COc4cc(OCc5cncc(C#N)c5)c(CN(CCC(F)(F)F)C(CO)CO)cc4Cl)c3C)c2Cl)CC1 [Example 2073, N-(1-(3-((2-chloro-3′-((2-chloro-5-((5-cyanopyridin-3-yl)methoxy)-4-(((1,3-dihydroxypropan-2-yl)(3,3,3-trifluoropropyl)amino)methyl)phenoxy)methyl)-2′-methyl-[1,1′-biphenyl]-3-yl)oxy)propyl)piperidin-4-yl)acetamide]
